According to article PMC10364322, “Evaluation of chronic drug-induced electrophysiological and cytotoxic effects using human-induced pluripotent stem cell-derived cardiomyocytes (hiPSC-CMs)” (Frontiers in Pharmacology, 2023):
Where two headings read alike, the source gives them in different places.

Tested on: hiPSC-CMs (iCell-Cardiomyocytes^2)
Outline: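 Spontaneous field potentials and impedance recorded by MEA at 37°C, 5% CO2 in hiPSC-CM monolayers (50 K/well, fibronectin-coated), 5-min baseline before compound; final DMSO 0.1%. Values are percent change from baseline, mean ± SD, compared with DMSO by Wilcoxon-Mann Whitney, interpreted against DMSO tolerance intervals.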

COc1nc(N)nc2c1ncn2[C@@H]1O[C@H](COP(=O)(N[C@@H](C)C(=O)OCC(C)(C)C)Oc2cccc3ccccc23)[C@@H](O)[C@@]1(C)O (stereo partly shown) [BMS-986094]
EAD, number of observations/total well numbers (1 µM, 96h): 0/5
FPD (field-potential duration), % change from baseline (1 µM, 96h): -7.9±0 %
FPDc (field-potential duration corrected by beat-rate), % change from baseline (1 µM, 96h): -5.5±0 %
Flat T-wave-like, number of observations/total well numbers (1 µM, 96h): 4/5
BR (beating rate), % change from baseline (3 µM, 72h): 12±6 %
Beating below threshold, number of observations/total well numbers (3 µM, 72h): 0/5
Cessation of beating, number of observations/total well numbers (3 µM, 72h): 0/5
EAD, number of observations/total well numbers (3 µM, 72h): 0/5
Flat T-wave-like, number of observations/total well numbers (3 µM, 72h): 5/5
BR (beating rate), % change from baseline (3 µM, 96h): 20±12 %
Beating below threshold, number of observations/total well numbers (3 µM, 96h): 0/5
Cessation of beating, number of observations/total well numbers (3 µM, 96h): 1/5
EAD, number of observations/total well numbers (3 µM, 96h): 0/5
Flat T-wave-like, number of observations/total well numbers (3 µM, 96h): 4/5
BR (beating rate), % change from baseline (3 µM, 2h): 7±1%
Beating below threshold, number of observations/total well numbers (3 µM, 2h): 0/5
Cessation of beating, number of observations/total well numbers (3 µM, 2h): 0/5
EAD, number of observations/total well numbers (3 µM, 2h): 0/5
FPD (field-potential duration), % change from baseline (3 µM, 2h): -3.6±1.9%
FPDc (field-potential duration corrected by beat-rate), % change from baseline (3 µM, 2h): -1.6±1.8%
Flat T-wave-like, number of observations/total well numbers (3 µM, 2h): 0/5
BR (beating rate), % change from baseline (3 µM, 24h): 20±3 %
Beating below threshold, number of observations/total well numbers (3 µM, 24h): 0/5
Cessation of beating, number of observations/total well numbers (3 µM, 24h): 0/5
EAD, number of observations/total well numbers (3 µM, 24h): 0/5
FPD (field-potential duration), % change from baseline (3 µM, 24h): -17±4.9 %
FPDc (field-potential duration corrected by beat-rate), % change from baseline (3 µM, 24h): -11.8±5.5 %
Flat T-wave-like, number of observations/total well numbers (3 µM, 24h): 0/5
BR (beating rate), % change from baseline (3 µM, 48h): 13±3%
Beating below threshold, number of observations/total well numbers (3 µM, 48h): 0/5
Cessation of beating, number of observations/total well numbers (3 µM, 48h): 0/5
EAD, number of observations/total well numbers (3 µM, 48h): 0/5
FPD (field-potential duration), % change from baseline (3 µM, 48h): -0.5±0%
FPDc (field-potential duration corrected by beat-rate), % change from baseline (3 µM, 48h): 2.6±0%
Flat T-wave-like, number of observations/total well numbers (3 µM, 48h): 4/5
BR (beating rate), % change from baseline (10 µM, 2h): 4±8%
Beating below threshold, number of observations/total well numbers (10 µM, 2h): 0/5
Cessation of beating, number of observations/total well numbers (10 µM, 2h): 0/5
EAD, number of observations/total well numbers (10 µM, 2h): 0/5
FPD (field-potential duration), % change from baseline (10 µM, 2h): -5.7±2.3%
FPDc (field-potential duration corrected by beat-rate), % change from baseline (10 µM, 2h): -4.4±2.8 %
Flat T-wave-like, number of observations/total well numbers (10 µM, 2h): 0/5
BR (beating rate), % change from baseline (10 µM, 24h): 30±4 %
Beating below threshold, number of observations/total well numbers (10 µM, 24h): 0/5
Cessation of beating, number of observations/total well numbers (10 µM, 24h): 0/5
EAD, number of observations/total well numbers (10 µM, 24h): 0/5
FPD (field-potential duration), % change from baseline (10 µM, 24h): -24.2±3.7 %
FPDc (field-potential duration corrected by beat-rate), % change from baseline (10 µM, 24h): -17.1±3.6 %
Flat T-wave-like, number of observations/total well numbers (10 µM, 24h): 1/5
BR (beating rate), % change from baseline (10 µM, 48h): 24±6 %
Beating below threshold, number of observations/total well numbers (10 µM, 48h): 0/5
Cessation of beating, number of observations/total well numbers (10 µM, 48h): 0/5
EAD, number of observations/total well numbers (10 µM, 48h): 0/5
FPD (field-potential duration), % change from baseline (10 µM, 48h): -10.6±0 %
FPDc (field-potential duration corrected by beat-rate), % change from baseline (10 µM, 48h): -2.4±0 %
Flat T-wave-like, number of observations/total well numbers (10 µM, 48h): 4/5
BR (beating rate), % change from baseline (10 µM, 72h): 32±14 %
Beating below threshold, number of observations/total well numbers (10 µM, 72h): 0/5
Cessation of beating, number of observations/total well numbers (10 µM, 72h): 0/5
EAD, number of observations/total well numbers (10 µM, 72h): 0/5
Flat T-wave-like, number of observations/total well numbers (10 µM, 72h): 5/5
BR (beating rate), % change from baseline (10 µM, 96h): 29±0 %
Beating below threshold, number of observations/total well numbers (10 µM, 96h): 1/5
Cessation of beating, number of observations/total well numbers (10 µM, 96h): 3/5
EAD, number of observations/total well numbers (10 µM, 96h): 0/5
Flat T-wave-like, number of observations/total well numbers (10 µM, 96h): 1/5
T-wave morphology (72 h and 96 h, two highest concentrations (10 and 1 µM)): flattening of the T-wave
